EC50, CC50 and activity data for 32 compounds are collected here from patent publication US20220411419A1, “SMALL MOLECULE MODULATORS OF MHC-I” (RetroVirox, Inc., priority 2018, published 2022).

For series [1], the system named is downmodulation of MHC-I molecules expressed on the surface of HIV infected SupT1 cells. In words: cells. Particulars: for EC50: Human immunodeficiency virus 1, SUP-T1, read-out: EC50 for inhibition of MHC-I downmodulation utilizing the R1 parameter; for activity at 100 µM: Human immunodeficiency virus 1, SUP-T1, read-out: R1 @ 100 μM (R1 value for MHC-I downmodulation as % of the vehicle control).

A further series in a line: in vitro. The note with it: human, uninfected SupT1 cells.

Molecules are shown by their SMILES. A value given as a limit tells only on which side of the number the result lay.

Consider `COc1ccc(C)cc1OCC(=O)N(C)c1nc2c(s1)CCCC2` [Compound 122, 2-(2-Methoxy-5-methylphenoxy)-N-methyl-N-(4,5,6,7-tetrahydrobenzo[d]thiazol-2-yl)acetamide], for which, in series [1], the concentration giving a half-maximal response (EC50) was 5 µM. In “in vitro”, this compound registered a CC50 at 48 h of over 125 µM.
`Cc1cc2c(OCC(=O)N(C)c3nc4c(s3)CCCC4)cccc2[nH]1` [Compound 123, N-Methyl-2-((2-methyl-1H-indol-4-yl)oxy)-N-(4,5,6,7-tetrahydrobenzo[d]thiazol-2-yl)acetamide]: in series [1], the EC50 is 0.013 µM. For the same compound, the CC50 at 48 h in the series “in vitro” is over 125 µM.
The like results for `COc1cccc(F)c1OCC(=O)N(C)c1nc2c(s1)CCCC2` [Compound 124, 2-(2-Fluoro-6-methoxyphenoxy)-N-methyl-N-(4,5,6,7-tetrahydrobenzo[d]thiazol-2-yl)acetamide] were, in that order, 0.26 µM and over 125 µM.
In the case of `Cc1ccccc1OCC(=O)N(C)c1nc2c(s1)CCCC2` [Compound 125, N-Methyl-N-(4,5,6,7-tetrahydrobenzo[d]thiazol-2-yl)-2-(o-tolyloxy) acetamide], the EC50 in series [1] came out at 0.88 µM. Besides, in the series “in vitro”, the CC50 at 48 h was over 125 µM.
Turning to `CN(C(=O)COc1cccc2c1OCCO2)c1nc2c(s1)CCCC2` [Compound 126, 2-((2,3-Dihydrobenzo[b][1,4]dioxin-5-yl)oxy)-N-methyl-N-(4,5,6,7-tetrahydrobenzo[d]thiazol-2-yl)acetamide], the EC50 in series [1] was determined as 0.8 µM. Also, in “in vitro”, the CC50 at 48 h was over 125 µM.
The like results for `COc1ccc(OCC(=O)N(C)c2nc3c(s2)CCCC3)cc1` [Compound 127, 2-(4-Methoxyphenoxy)-N-methyl-N-(4,5,6,7-tetrahydrobenzo[d]thiazol-2-yl) acetamide] were, in that order, over 25 µM and over 125 µM.
In the case of `CN(C(=O)COc1cccc2cc[nH]c12)c1nc2c(s1)CCCC2` [Compound 128, 2-((1H-Indol-7-yl)oxy)-N-methyl-N-(4,5,6,7-tetrahydrobenzo[d]thiazol-2-yl) acetamide], the 50% effective concentration (EC50) in series [1] was over 25 µM. Besides, the cytotoxic concentration (CC50) at 48 h in the series “in vitro” was over 125 µM.
On to `Cc1c(Cl)cccc1OCC(=O)N(C)c1nc2c(s1)CCCC2` [Compound 129, 2-(3-Chloro-2-methylphenoxy)-N-methyl-N-(4,5,6,7-tetrahydrobenzo[d]thiazol-2-yl)acetamide], for which the EC50 in series [1] is over 25 µM. In addition, the CC50 at 48 h in the series “in vitro” is over 125 µM.
For the compound `COc1ccccc1OCC(=O)N(C)c1nc2c(s1)CCCC2` [Compound 130, 2-(2-Methoxyphenoxy)-N-methyl-N-(4,5,6,7-tetrahydrobenzo[d]thiazol-2-yl) acetamide], the EC50 in series [1] amounted to 0.38 µM. This compound also registered a CC50 at 48 h in “in vitro” of over 125 µM.
The like results for `COc1cccc(OC)c1OCC(=O)N(C)c1nc2c(s1)CCCC2` [Compound 131, 2-(2,6-Dimethoxyphenoxy)-N-methyl-N-(4,5,6,7-tetrahydrobenzo[d]thiazol-2-yl)acetamide] were, in that order, 2.6 µM and about 125 µM.
Turning to `O=C(COc1cccc2[nH]ccc12)Nc1nc2c(s1)CCCC2` [Compound 132, 2-((1H-Indol-4-yl)oxy)-N-(4,5,6,7-tetrahydrobenzo[d]thiazol-2-yl)acetamide], the EC50 in series [1] worked out at 0.081 µM. The compound also gave a CC50 at 48 h in “in vitro” of over 125 µM.
For the compound `Cc1csc(NC(=O)COc2cccc3[nH]ccc23)n1` [Compound 133, 2-((1H-Indol-4-yl)oxy)-N-(4-methylthiazol-2-yl)acetamide], in series [1], the EC50 worked out at 1.5 µM. Besides, the CC50 at 48 h in the series “in vitro” was over 100 µM.
On to `Cc1csc(NC(=O)COc2cccc3cc[nH]c23)n1` [Compound 134, 2-((1H-Indol-7-yl)oxy)-N-(4-methylthiazol-2-yl)acetamide], for which the EC50 in series [1] turned out to be 11 µM. In the series “in vitro”, the CC50 at 48 h was over 100 µM.
The like results for `O=C(COc1cccc2c1CCN2)Nc1nc2c(s1)CCCC2` [Compound 135, 2-(Indolin-4-yloxy)-N-(4,5,6,7-tetrahydrobenzo[d]thiazol-2-yl)acetamide] were, in that order, 0.088 µM and over 125 µM.
As to `Cc1ccnc(C)c1OCC(=O)N(C)c1nc2c(s1)CCCC2` [Compound 136, 2-((2,4-Dimethylpyridin-3-yl)oxy)-N-methyl-N-(4,5,6,7-tetrahydrobenzo[d]thiazol-2-yl)acetamide], the EC50 in series [1] is 12 µM. It took 124 µM to reach half-maximal cytotoxicity in the series “in vitro” (CC50 at 48 h).
The like results for `Cc1ncccc1OCC(=O)N(C)c1nc2c(s1)CCCC2` [Compound 137, N-Methyl-2-((2-methylpyridin-3-yl)oxy)-N-(4,5,6,7-tetrahydrobenzo[d]thiazol-2-yl)acetamide] were, in that order, over 25 µM and 12 µM.
As for `Cc1ccncc1OCC(=O)N(C)c1nc2c(s1)CCCC2` [Compound 138, N-Methyl-2-((4-methylpyridin-3-yl)oxy)-N-(4,5,6,7-tetrahydrobenzo[d]thiazol-2-yl)acetamide], in series [1], the EC50 is over 25 µM. In addition, in the series “in vitro”, the CC50 at 48 h was over 125 µM.
The like results for `Cc1csc(NC(=O)COc2ccccc2OC(C)C)n1` [Compound 140, 2-(2-isopropoxyphenoxy)-N-(4-methylthiazol-2-yl)acetamide] were, in that order, 14 µM and over 125 µM.
Take `Cc1csc(NC(=O)COc2ccccc2OCc2ccccc2)n1` [Compound 141, 2-(2-(Benzyloxy)phenoxy)-N-(4-methylthiazol-2-yl)acetamide]: in series [1], the EC50 is 1.84 µM. The CC50 at 48 h in “in vitro” was over 100 µM.
Consider `Cc1csc(N(Cc2ccccc2)C(=O)COc2ccccc2OCc2ccccc2)n1` [Compound 142, N-Benzyl-2-(2-(benzyloxy)phenoxy)-N-(4-methylthiazol-2-yl)acetamide], for which the EC50 in series [1] was determined as 5.5 µM. In the series “in vitro”, this compound displayed a CC50 at 48 h of over 125 µM.
For `CC1(C)Cc2cccc(OCC(=O)Nc3nc4ccccc4s3)c2O1` [Compound 143, N-(benzo[d]thiazol-2-yl)-2-((2,2-dimethyl-2,3-dihydrobenzofuran-7-yl)oxy)acetamide], in series [1], the EC50 amounted to 0.41 µM. This compound also came in with a CC50 at 48 h in the series “in vitro” of over 100 µM.
The like results for `CN(C(=O)COc1cccc2c1OC(C)(C)C2)c1nc2ccccc2s1` [Compound 144, N-(benzo[d]thiazol-2-yl)-2-((2,2-dimethyl-2,3-dihydrobenzofuran-7-yl)oxy)-N-methylacetamide] were, in that order, 29 µM and over 90 µM.
Take `CC1(C)Cc2cccc(OCC(=O)Nc3nc4c(Cl)cccc4s3)c2O1` [Compound 145, N-(4-Chlorobenzo[d]thiazol-2-yl)-2-((2,2-dimethyl-2,3-dihydrobenzofuran-7-yl)oxy)acetamide]: in series [1], the EC50 is 0.091 µM. Moreover, the CC50 at 48 h in “in vitro” is over 90 µM.
On to `COc1cccc2sc(NC(=O)COc3cccc4c3OC(C)(C)C4)nc12` [Compound 146, 2-((2,2-Dimethyl-2,3-dihydrobenzofuran-7-yl)oxy)-N-(4-methoxybenzo[d]thiazol-2-yl)acetamide], for which the EC50 in series [1] was 1.69 µM. The compound also displayed a CC50 at 48 h in “in vitro” of over 10 µM.
In the case of `CC1(C)Cc2cccc(OCC(=O)Nc3nc4c(F)cccc4s3)c2O1` [Compound 147, 2-((2,2-Dimethyl-2,3-dihydrobenzofuran-7-yl)oxy)-N-(4-fluorobenzo[d]thiazol-2-yl)acetamide], in series [1], the EC50 amounted to 0.09 µM. Further, the cytotoxic concentration (CC50) at 48 h in “in vitro” is over 90 µM.
The like results for `CC1(C)Cc2cccc(OCC(=O)Nc3nc4cc(F)ccc4s3)c2O1` [Compound 148, 2-((2,2-Dimethyl-2,3-dihydrobenzofuran-7-yl)oxy)-N-(5-fluorobenzo[d]thiazol-2-yl)acetamide] were, in that order, 2 µM and over 100 µM.
On to `CC1(C)Cc2cccc(OCC(=O)Nc3nc4ccc(OC(F)(F)F)cc4s3)c2O1` [Compound 149, 2-((2,2-Dimethyl-2,3-dihydrobenzofuran-7-yl)oxy)-N-(6-(trifluoromethoxy)benzo[d]thiazol-2-yl)acetamide], for which, in series [1], the EC50 was over 25 µM and the activity at 100 µM is 27%. Also, in the series “in vitro”, the CC50 is over 100 µM and the CC50 at 48 h was over 100 µM.
On to `CC1(C)Cc2cccc(OCC(=O)Nc3nc(C(=O)N4CCCC4)cs3)c2O1` [Compound 150, 2-((2,2-dimethyl-2,3-dihydrobenzofuran-7-yl)oxy)-N-(4-(pyrrolidine-1-carbonyl)thiazol-2-yl)acetamide], for which, in series [1], the EC50 is over 25 µM and the activity at 100 µM worked out at 47%. Moreover, in “in vitro”, the CC50 is over 90 µM and the CC50 at 48 h was over 90 µM.
As for `CC1(C)Cc2cccc(OCC(=O)Nc3nc(C(=O)N4CCCCC4)cs3)c2O1` [Compound 151, 2-((2,2-Dimethyl-2,3-dihydrobenzofuran-7-yl)oxy)-N-(4-(piperidine-1-carbonyl)thiazol-2-yl)acetamide], in series [1], the concentration for a half-maximal effect (EC50) is over 25 µM and the activity at 100 µM came to 51%. In the series “in vitro”, this compound yielded a CC50 of over 90 µM and a CC50 at 48 h of over 90 µM.
Take `CC1(C)Cc2cccc(OCC(=O)Nc3nc(C(=O)N4CC[C@H](CO)C4)cs3)c2O1` [Compound 152, (S)-2-((2,2-Dimethyl-2,3-dihydrobenzofuran-7-yl)oxy)-N-(4-(3-(hydroxymethyl)pyrrolidine-1-carbonyl)thiazol-2-yl)acetamide]: in series [1], the EC50 was over 25 µM and the activity at 100 µM was determined as 54%. In “in vitro”, this compound showed a CC50 of over 90 µM and a CC50 at 48 h of over 90 µM.
Turning to `CC1(C)Cc2cccc(OCC(=O)Nc3nc(C(=O)N4CC(CO)C4)cs3)c2O1` [Compound 153, 2-((2,2-Dimethyl-2,3-dihydrobenzofuran-7-yl)oxy)-N-(4-(3-(hydroxymethyl)azetidine-1-carbonyl)thiazol-2-yl)acetamide], in series [1], the EC50 was over 25 µM and the activity at 100 µM is 39%. In “in vitro”, this compound returned a CC50 of over 90 µM and a CC50 at 48 h of over 90 µM.
On to `CC1(C)Cc2cccc(OCC(=O)Nc3nc(C(=O)NCc4ccco4)cs3)c2O1` [Compound 154, 2-(2-((2,2-Dimethyl-2,3-dihydrobenzofuran-7-yl)oxy)acetamido)-N-(furan-2-ylmethyl)thiazole-4-carboxamide], for which, in series [1], the EC50 was over 25 µM and the activity at 100 µM is 44%. In “in vitro”, this compound yielded a CC50 of over 100 µM and a CC50 at 48 h of over 100 µM.

What is called EC50 is the midpoint of the concentration-response curve. By CC50 is commonly meant the concentration giving 50% cytotoxicity. The low end stands for harm at low concentration, the high end for better tolerance by the cells.
